Experimental data: paper doi:10.1101/2025.10.27.684712v1, “Structure-guided development of a potent human B^0AT1 inhibitor effective in a mouse model of phenylketonuria” (biorxiv, 2025)

What was measured:
[1] = target: T1, hB^0AT1 (human SLC6A19) co-expressed with human Collectrin (Homo sapiens, UniProt Q695T7); assay: inhibition of d5-phenylalanine uptake, LC-MS/MS; type: cell-based
T1 construct: hSLC6A19-T2A-hCollectrin synthetic construct, wild type, doxycycline-inducible in JTREx-CHO cells; with Collectrin
T1 sequence (Q695T7 1-634): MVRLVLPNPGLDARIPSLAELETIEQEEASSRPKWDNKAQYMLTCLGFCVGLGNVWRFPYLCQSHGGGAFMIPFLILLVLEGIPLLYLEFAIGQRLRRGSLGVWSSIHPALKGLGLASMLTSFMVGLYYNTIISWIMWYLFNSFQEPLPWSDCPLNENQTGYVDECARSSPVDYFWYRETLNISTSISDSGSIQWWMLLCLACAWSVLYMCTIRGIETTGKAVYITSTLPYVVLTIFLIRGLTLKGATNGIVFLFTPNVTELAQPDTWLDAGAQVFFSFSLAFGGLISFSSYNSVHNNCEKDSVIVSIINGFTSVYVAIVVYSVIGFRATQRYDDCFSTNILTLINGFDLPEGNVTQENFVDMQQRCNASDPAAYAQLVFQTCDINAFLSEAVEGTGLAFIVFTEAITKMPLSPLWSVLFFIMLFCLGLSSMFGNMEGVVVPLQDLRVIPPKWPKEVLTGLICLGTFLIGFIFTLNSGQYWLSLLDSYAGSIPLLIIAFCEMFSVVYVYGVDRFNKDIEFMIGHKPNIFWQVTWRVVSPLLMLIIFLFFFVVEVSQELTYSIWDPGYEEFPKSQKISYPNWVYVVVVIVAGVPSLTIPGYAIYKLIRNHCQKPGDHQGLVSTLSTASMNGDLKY
T1 sequence (Q9HBJ8 15-222 partner): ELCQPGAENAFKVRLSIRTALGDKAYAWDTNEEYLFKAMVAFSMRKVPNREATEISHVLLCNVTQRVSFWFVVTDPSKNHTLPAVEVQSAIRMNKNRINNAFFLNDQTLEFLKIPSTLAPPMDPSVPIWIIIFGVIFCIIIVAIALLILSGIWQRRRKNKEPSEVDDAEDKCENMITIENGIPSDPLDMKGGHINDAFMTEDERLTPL

hB^0AT1-ACE2 complex = target: T2, hB^0AT1-ACE2 complex (Homo sapiens, UniProt Q695T7); assay: binding to crude membranes, filtration and LC-MS/MS
T2 construct: gene SLC6A19; wild type; N-terminal FLAG on B0AT1, Strep-tag after ACE2 signal peptide; FreeStyle 293-F; with Angiotensin-converting enzyme 2
T2 sequence (Q9BYF1 18-805 partner, one chain of several): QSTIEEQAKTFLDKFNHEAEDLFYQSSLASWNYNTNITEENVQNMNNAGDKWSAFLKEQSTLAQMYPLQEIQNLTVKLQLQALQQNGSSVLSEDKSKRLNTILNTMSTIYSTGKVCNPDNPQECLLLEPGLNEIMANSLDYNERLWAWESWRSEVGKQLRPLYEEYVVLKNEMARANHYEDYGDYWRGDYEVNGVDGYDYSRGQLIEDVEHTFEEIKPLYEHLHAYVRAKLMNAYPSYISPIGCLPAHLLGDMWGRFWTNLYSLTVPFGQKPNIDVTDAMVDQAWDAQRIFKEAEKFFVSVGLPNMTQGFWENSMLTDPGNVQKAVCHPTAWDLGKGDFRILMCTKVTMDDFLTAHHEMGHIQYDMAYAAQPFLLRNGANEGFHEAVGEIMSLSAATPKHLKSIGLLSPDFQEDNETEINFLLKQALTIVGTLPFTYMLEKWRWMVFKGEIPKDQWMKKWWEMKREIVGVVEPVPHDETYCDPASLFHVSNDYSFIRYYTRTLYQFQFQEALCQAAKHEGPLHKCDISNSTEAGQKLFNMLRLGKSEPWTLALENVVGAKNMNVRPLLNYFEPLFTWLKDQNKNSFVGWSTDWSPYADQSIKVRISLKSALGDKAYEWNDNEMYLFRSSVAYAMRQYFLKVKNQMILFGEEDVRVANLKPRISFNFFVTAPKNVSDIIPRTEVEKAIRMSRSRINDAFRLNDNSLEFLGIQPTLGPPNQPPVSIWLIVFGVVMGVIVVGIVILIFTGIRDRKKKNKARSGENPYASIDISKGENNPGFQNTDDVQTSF

[2] = target: T3, mB^0AT1 (mouse SLC6A19) co-expressed with mouse Collectrin (Mus musculus, UniProt Q9D687); assay: inhibition of d5-phenylalanine uptake, LC-MS/MS; type: cell-based
T3 construct: mSLC6A19-T2A-mCollectrin synthetic construct, doxycycline-inducible in JTREx-CHO cells; with Collectrin
T3 sequence (Q9D687 1-634): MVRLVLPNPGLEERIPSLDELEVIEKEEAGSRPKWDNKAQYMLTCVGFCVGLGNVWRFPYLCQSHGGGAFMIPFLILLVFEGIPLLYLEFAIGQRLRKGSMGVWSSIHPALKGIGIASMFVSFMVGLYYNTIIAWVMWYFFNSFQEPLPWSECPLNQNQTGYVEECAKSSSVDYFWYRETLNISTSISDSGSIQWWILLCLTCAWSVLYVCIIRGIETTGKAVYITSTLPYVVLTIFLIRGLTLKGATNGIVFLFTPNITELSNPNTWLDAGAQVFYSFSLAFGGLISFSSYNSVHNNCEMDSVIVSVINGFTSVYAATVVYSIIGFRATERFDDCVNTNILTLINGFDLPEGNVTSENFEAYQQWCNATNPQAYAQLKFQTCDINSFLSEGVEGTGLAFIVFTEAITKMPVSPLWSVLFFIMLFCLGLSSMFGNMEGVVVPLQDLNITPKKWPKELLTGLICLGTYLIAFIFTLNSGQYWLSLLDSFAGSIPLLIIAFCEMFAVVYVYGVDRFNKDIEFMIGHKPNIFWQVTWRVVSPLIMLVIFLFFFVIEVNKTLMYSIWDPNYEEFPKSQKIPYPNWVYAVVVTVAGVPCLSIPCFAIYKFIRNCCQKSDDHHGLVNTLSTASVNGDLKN
T3 sequence (Q9ESG4 15-222 partner): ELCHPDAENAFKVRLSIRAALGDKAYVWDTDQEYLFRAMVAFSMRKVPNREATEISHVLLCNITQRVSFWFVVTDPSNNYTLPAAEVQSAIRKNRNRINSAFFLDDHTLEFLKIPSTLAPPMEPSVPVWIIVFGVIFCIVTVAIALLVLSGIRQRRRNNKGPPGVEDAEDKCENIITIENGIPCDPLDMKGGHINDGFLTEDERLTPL

[3] = target: T1, hB^0AT1 (human SLC6A19) co-expressed with human Collectrin; assay: d5-phenylalanine uptake kinetics, LC-MS/MS; type: cell-based; conditions: labelled compound; 100 mM NaCl, pH 7.4, 37 °C, no inhibitor

Row | IC50 [1] | Kd (hB^0AT1-ACE2 complex) | IC50 [2] | Km [3] | Compound
1 | 970 nM | 472 nM | > 10000 nM |  | CCNC(=O)/C=C/c1cccc(Br)c1 [compound 1, Cinromide]
2 | 5500 nM | 140 nM | 1980 nM |  | CN(C)C(=O)CNC(=O)/C=C/c1ccc(C(F)(F)F)cc1 [compound 2]
3 | 513 nM | 47 nM | 295 nM |  | O=C(/C=C/c1ccc(C(F)(F)F)cc1)NCC(=O)N1CCNC(=O)C1 [compound 3]
4 |  |  |  | 866 ± 144 µM | d5-phenylalanine
